Values of other authors in article PMC3583338 (Clinical pharmacology and therapeutics, 2008).

For `CC(C)c1nc(CN(C)C(=O)N[C@H](C(=O)N[C@@H](Cc2ccccc2)C[C@H](O)[C@H](Cc2ccccc2)NC(=O)OCc2cncs2)C(C)C)cs1` [ritonavir], the “effect on OATP1B3” value (OATP1B3) is listed as “little or no effect”, the “effect on OATP1B1” value (OATP1B1) is listed as “little or no effect” and the “P-gp mRNA expression” value (P-gp) is listed as “moderately induced”. For the same compound, the “inhibition of OATP-mediated fexofenadine transport” value (OATP) was 13%.
